Source: patent publication US20260048051A1, “TREATMENT OF INFLAMMATORY BOWEL DISEASE” (Atomwise Inc., priority 2024, published 2026)

Biological target: T1, TYK2-JH2 (Homo sapiens, UniProt P29597)
T1 construct: TYK JH2 enzyme mix (ChemPartner: CP20210818A-BV); purchased ChemPartner CP20210818A-BV
Test: TYK2-JH2 HTRF binding assay (ligand efficiency)
Settings: calculated from binding-assay IC50 (Equation 1)
Protocol: The following example describes the TYK2-JH2 HTRF binding assay used to determine the ligand efficiency of the TYK2 inhibitors.
To calculate ligand efficiency, Equation 1 is applied: […]
in which IC50 comes from the binding assay used to determine compound potency.
TYK JH2 enzyme mix (ChemPartner: CP20210818A-BV), tracer (ChemPartner: CP-0029472-051) and mAb Anti-6HIS Tb cryptate Gold (Cisbio: Cat No. 61HI2TLA) mix were prepared in assay buffer (10 mM MgCl2, 20 mM HEPES pH 7.5, 0.01% Triton X-100, 1 mM DTT). Compounds diluted in DMSO (Final Concentrations 0.1 to 0.000005 [μM]) and enzyme mix (0.5 nM Final Concentration) were added to 384 well plates, briefly centrifuged and incubated at room temperature for 10 minutes. After incubation, tracer mix (Tracer-35 nM final concentration); (MAb Anti-6HIS Tb cryptate Gold-0.5× final)) was added, briefly centrifuged then incubate at room temperature 60 minutes. After incubation, plates were read by Envision TR-FRET (Ex340/Em495/520) protocol (PerkinElmer-Envision 2104 multilabel plate reader).

T1 sequence (P29597 589-875 limits assumed): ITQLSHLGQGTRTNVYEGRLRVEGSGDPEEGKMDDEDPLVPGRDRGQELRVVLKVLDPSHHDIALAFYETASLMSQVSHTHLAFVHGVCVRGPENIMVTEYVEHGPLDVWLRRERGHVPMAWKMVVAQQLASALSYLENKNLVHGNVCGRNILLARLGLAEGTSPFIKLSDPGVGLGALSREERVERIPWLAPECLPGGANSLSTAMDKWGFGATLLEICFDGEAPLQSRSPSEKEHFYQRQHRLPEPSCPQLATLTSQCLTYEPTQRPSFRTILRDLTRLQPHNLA

| Structure (SMILES) | Ligand Efficiency |
| --- | --- |
| CC(c1ccc(Nc2cc(Nc3ncccc3S(C)(=O)=O)ncn2)nc1)N1CC2(CC(F)C2)C1 (stereo in doubt) [Compound 10, N^4-(5-((1R)-1-(6-fluoro-2-azaspiro[3.3]heptan-2-yl)ethyl)pyridin-2-yl)-N^6-(3-(methylsulfonyl)pyridin-2-yl)pyrimidine-4,6-diamine] | ††† (†††: >0.39) |
| CC(c1ccc(Nc2cc(Nc3ncccc3S(C)(=O)=O)ncn2)nc1)N1CCCC1 (stereo in doubt) [Compound 15, (R)—N^4-(3-(methylsulfonyl)pyridin-2-yl)-N^6-(5-(1-(pyrrolidin-1-yl)ethyl)pyridin-2-yl)pyrimidine-4,6-diamine] | ††† (†††: >0.39) |
| CC(c1ccc(Nc2cc(Nc3ncccc3S(C)(=O)=O)ncn2)nc1)N1CC2(CCOCC2)C1 (stereo in doubt) [Compound 31, (R)—N^4-(5-(1-(7-oxa-2-azaspiro[3.5]nonan-2-yl)ethyl)pyridine-2-yl)-N^6-(3-(methylsulfonyl)pyridin-2-yl)pyrimidine-4,6-diamine] | †† (††: 0.37-0.39) |
| CC(NC1COC1)c1ccc(Nc2cc(Nc3ccccc3S(C)(=O)=O)ncn2)nc1 (stereo in doubt) [Compound 40, (R)—N^4-(2-(methylsulfonyl)phenyl)-N^6-(5-(1-(oxetan-3-ylamino)ethyl)pyridin-2-yl)pyrimidine-4,6-diamine] | ††† (†††: >0.39) |
| COc1cnc(Nc2cc(Nc3ccc([C@H](C)N4CC5(COC5)C4)cn3)ncn2)c(S(C)(=O)=O)c1 [Compound 3, (S)—N^4-(5-(1-(2-oxa-6-azaspiro[3.3]heptan-6-yl)ethyl)pyridine-2-yl)-N^6-(5-methoxy-3-(methylsulfonyl)pyridin-2-yl)pyrimidine-4,6-diamine] | †† (††: 0.37-0.39) |
| Cc1nc(Nc2cc(Nc3ncccc3S(C)(=O)=O)ncn2)ccc1NC1(C)COC1 [Compound 6, N^4-(6-methyl-5-((3-methyloxetan-3-yl)amino)pyridin-2-yl)-N^6-(3-(methylsulfonyl)pyridin-2-yl)pyrimidine-4,6-diamine] | ††† (†††: >0.39) |
| CS(=O)(=O)c1cccnc1Nc1cc(Nc2ccc(N3CCN(C4CC4)CC3)cn2)ncn1 [Compound 7, N^4-(5-(4-cyclopropylpiperazin-1-yl)pyridin-2-yl)-N^6-(3-(methylsulfonyl)pyridin-2-yl)pyrimidine-4,6-diamine] | ††† (†††: >0.39) |
| C[C@H]1CN(C2CC2)CCN1c1ccc(Nc2cc(Nc3ncccc3S(C)(=O)=O)ncn2)nc1 [Compound 8, (S)—N^4-(5-(4-cyclopropyl-2-methylpiperazin-1-yl)pyridin-2-yl)-N^6-(3-(methylsulfonyl)pyridin-2-yl)pyrimidine-4,6-diamine] | ††† (†††: >0.39) |
| CS(=O)(=O)c1cccnc1Nc1cc(Nc2ccc3c(n2)CC[C@@H]3N2CC3(COC3)C2)ncn1 [Compound 9, N^4-((5S)-5-(2-oxa-6-azaspiro[3.3]heptan-6-yl)-6,7-dihydro-5H-cyclopenta[b]pyridin-2-yl)-N^6-(3-(methylsulfonyl)pyridin-2-yl)pyrimidine-4,6-diamine] | ††† (†††: >0.39) |
| CC(C)[C@@H](c1ccc(Nc2cc(Nc3ncccc3S(C)(=O)=O)ncn2)nc1)N1CC2(COC2)C1 [Compound 13, (S)—N^4-(5-(2-methyl-1-(2-oxa-6-azaspiro[3.3]heptan-6-yl)propyl)pyridine-2-yl)-N^6-(3-(methylsulfonyl)pyridin-2-yl)pyrimidine-4,6-diamine] | †† (††: 0.37-0.39) |
| C[C@@H](c1ccc(Nc2cc(Nc3ncc(Cl)cc3S(C)(=O)=O)ncn2)nc1)N1CC2(COC2)C1 [Compound 14, (S)—N^4-(5-(1-(2-oxa-6-azaspiro[3.3]heptan-6-yl)ethyl)pyridin-2-yl)-N^6-(5-chloro-3-(methylsulfonyl)pyridin-2-yl)pyrimidine-4,6-diamine] | ††† (†††: >0.39) |
